Test results: patent US20250154172A1, “PRMT5 INHIBITORS AND USES THEREOF” (Gilead Sciences, Inc., priority 2023, published 2025)

What was measured:
[1] = tested on: AsPC-1; assay: Cell viability assay for additional cell lines: AsPC-1; format: cell-based; conditions: Homo sapiens, ASPC1, 216 h, 9-day treatment, average of n=2, read-out: MTAP-WT GI50
Experimental: Some Compounds of the Disclosure were tested in Calu-6 (Vendor: ATCC; Cat #HTB-56; Description: lung, adenocarcinoma), LU99 (Vendor: JCRB; Cat #JCRB0080; Description: non-small cell lung cancer), SW780 (Vendor: ATCC; Cat #CRL-2169; Description: bladder urothelial carcinoma), BxPC-3 (Vendor: ATCC; Cat #CRL-1687; Description: pancreatic adenocarcinoma), Panc-1 (Vendor: ATCC; Cat #CRL-1469 Description: pancreatic adenocarcinoma), AsPC-1 (Vendor: ATCC; Cat #CRL-1682; Description: pancreatic adenocarcinoma), Calu-6 (Vendor: ATCC; Cat #HTB-56; Description: non-small cell lung cancer), and U-2 OS (Vendor: ATCC; Cat #HTB-96; Description: osteosarcoma), cellular viability assays according to the general protocol. Seeded cells into 96-well plate and incubated overnight. Seeded an additional 10 wells per cell line in an additional 96-well plate for assessing Time Zero luminescence and incubated overnight. To treatment plates, added compounds into each well using Tecan D300e dispenser (nine three-fold dilutions starting at 10 μM) and incubated for 9 days. Time Zero (no compound treatment, luminescence assessed on day 1) and 9-day treatment (luminescence assessed on day 10) plates were assessed using the same CellTiter-Glo® substrate protocol. […] Recorded luminescence with Perkin Elmer Envision 2105 machine. Analyzed the data with GraphPad software. […]

[2] = Hepatocyte stability assay; format: in vitro ADME; conditions: Rat hepatocytes; 1 μM substrate
Experimental: BioreclamationIVT (Baltimore, MD) provided the cryopreserved hepatocytes, hepatocyte thawing (HT) medium, and Krebs-Henseleit buffer (KHB) medium. The stock solution concentration was 1 M in DMSO and was then diluted further in acetonitrile/water (1:1 v/v). All other chemicals were purchased from Sigma-Aldrich (St. Louis, MO) or Thermo Fisher Scientific (Waltham, MA).
The quench solution used to stop reactions in the hepatocyte incubations was comprised of 100% (v/v) acetonitrile. Internal Standard/Quench (IS/Q) solution used to stop reactions with the positive control also contained 200 nM Labetalol.
Metabolic Stability in Cryopreserved Hepatocytes: Test compounds, or the positive control metabolic substrate, was incubated in suspensions of cryopreserved hepatocytes at a final concentration of 1 μM. Vials containing cryopreserved hepatocytes were removed from liquid nitrogen and immediately immersed in a 37° C. water bath. The vials were swirled gently until the contents had thawed. […] The viabilities of all cell preparations were >85%, assessed by Trypan blue dye exclusion.
For incubations, aliquots of hepatocyte suspension (250 μL containing a cell concentration of 2×10^6 cells/mL) were added to 250 μL of 2 μM substrate (test compound or positive control) in supplemented KHB in duplicate wells in a 24-well plate. […] Samples were injected and analyzed with methods described below. […]

SMILES | GI50 [1] | Predicted Hepatocyte CL [2]
Nc1nc2cnc(C(=O)N3CCC[C@@H]4Oc5cc(C(F)(F)F)cc(F)c5[C@@H]43)cc2c2c1COC2 [Example Ca-47, (4-amino-1,3-dihydrofuro[3,4-c][1,7]naphthyridin-8-yl)((4aS,9bS)-9-fluoro-7-(trifluoromethyl)-3,4,4a,9b-tetrahydrobenzofuro[3,2-b]pyridin-1(2H)-yl)methanone] | 2800 nM | 42.2 mL/min/kg
Nc1nc2cnc(C(=O)N3CCOC[C@@H]3c3ccc(C(F)(F)F)cc3)cc2c2c1COC2 [AMG193, reference compound] | > 10000 nM | 41 mL/min/kg
